Data published in EP2966448B1, “METHOD FOR THE PREDICTION OR PROGNOSIS OF THE RESPONSE OF A HUMAN SUBJECT SUFFERING FROM CANCER TO TREATMENT WITH AN ANTAGONIST OF THE NK1 RECEPTOR” (priority 2013, dated 2014).
Like-named read-outs stand apart in the source and are kept apart here.

What was measured:
[1] = tested on: human primary tumor cells; assay: Inhibition of primary tumor cell cultures vs low or high expression of the truncated form of NK1 receptor (Example 5; tumor type per table line); assay type: cell-based; conditions: for Percentage of inhibition of cell cultures: 100 micromolar
Method: (§1) Cell cultures. To obtain tumor cells from human primary tumors we used the method described in De Bari et al. (De Bari et al. 2001). Briefly, small pieces of the tumors were digested into a hyaluronidase solution (Sigma-Aldrich, USA) at a concentration of 1 mg/ml during 15 minutes at 37°C, and then they were treated with 6 mg/ml of collagenase type IV (Invitrogen) during 2 hours at 37°C. Consecutively, cells were washed, and resuspended in the DMEM culture medium with high concentration of glucose (Dulbecco's Modified Eagle's Medium, Invitrogen) supplemented with 1% of antibiotics-antimycotics (Invitrogen) and with 1% of sodium pyruvate (Invitrogen), and the cells were seeded in culture slides at a concentration of 10.000 cells per square centimeter. When cells reached confluence, the adherent cells were separated using sterile trypsin at 0,5% (Invitrogen) and they were used among passages 3 and 9. For the assays shown next, tumor cells were seeded on slides at a concentration of 25.000 cells per well. A total of 6 wells containing the tumor cells were used as survival control. […] All the cultures were kept during 48 hours and later on recollected for their analysis.
The presence of the truncated form of NK1 receptor was determined and then cells were cultured in presence of several antagonists of the NK1 receptor.
In each case the presence of the truncated form of the NK1 receptor was determined.
To determine the presence of the truncated form of the gene of NK1 receptor PCR technique was performed (Polymerase Chain Reaction). The extraction of RNA, amplifications of PCR, cycle conditions and quantitative analysis were executed as it has been previously described. The specific primers were the following: For the full-length NK1R receptor (NM_001058.3; forward (SEQ ID NO: 17)-: 5'-[sequence]-3 ' and reverse- (SEQ ID NO:18): 5'-[sequence]-3') and for the truncated NK1receptor (NM_015727.2; forward (SEQ ID NO: 19): 5'-[sequence]-3 and reverse (SEQ ID NO;20): 5'-[sequence]-3').
Cases were distributed in two groups: • Group A -low expression of the truncated form of NK1 receptor- for those cases wherein the expression of the truncated form of NK1 receptor was less than double the expression of the full length form of such receptor. • Group B -high expression of the truncated form of NK1 receptor- for those cases wherein the expression of the truncated form of the NK1 receptor was higher than double the expression of the full length form of such receptor.
The percentages of inhibition are expressed in percentage of variation in relation to the control ± standard deviation.

[2] = tested on: Malignant Fibrous Histiocytoma; assay: Inhibition of primary tumor cell cultures (48 hours) vs NK1 receptor immunostaining (Example 1); assay type: cell-based; conditions: Homo sapiens, 1 micromolar, read-out: Percentage of inhibition of cell cultures
Method: as §1
(§2) Immunohistochemistry techniques. The presence of NK1 receptors was also analyzed using immunohistochemistry techniques. Briefly, a sample of each of the cultures of the cell lines used in the present invention, was centrifuged (5 minutes at 1.500 rpm) and the pellet obtained was dehydrated using increasing concentrations of ethanol and, finally, xylol. Then, said dehydrated samples were embedded in paraffin, creating a block of cells. Such paraffin blocks were cut with a microtome at 5 microns thickness, and were placed on microscope slides adequate to perform immunohistochemistry techniques. Consecutively, they were de-paraffinized by immersing them in xylol, to be finally hydrated using a solution containing decreasing concentrations of ethanol, and finally submerged them into water. […] After this, the samples were left to cool down at room temperature for 10 minutes. The endogenous peroxidase activity was blocked with 3% peroxide of hydrogen for 30 minutes at room temperature. After washing the samples with 0.05 M of Tris buffer, they were incubated with 10% non-immune pork serum at for 30 minutes at room temperature. To analyze the expression of NK1 receptors, the cellular samples were incubated in the presence of anti-NK1 antibodies (S8305, Sigma-Aldrich) diluted 1:1000, overnight at 4°C. Afterwards, the samples were washed in Tris buffer 0.05 M at room temperature. The next step was the addition of Envision System-HRP (Dako) reagents for 30 minutes at room temperature. Then, the samples were washed again in Tris buffer 0.05 M and the immunoreactivity was visualized through light microscopy with a chromogenic solution containing 3,3'-Diaminobenzidine (DAB+; Dako, USA). To differentiate the cell nuclei, they were slightly stained with hematoxylin. As negative control, it was used samples not incubated with the primary antibody anti-NK1, which was replaced by non-immune serum. All the samples were evaluated.
(§3) To value the immunostaining in each of the cases six cuts were performed to be analyzed by the immunohistochemistry technique. In each of the six cuts, it was counted cells in 20 fields (magnification 400x) using an Olympus microscope (model CX31). In each field it was counted the total number of cells and the number of cells presenting immunostaining, calculating afterwards the percentage of cells which presented immunostaining.

Ewing Sarcoma = assay: as above; assay type: cell-based; conditions: Homo sapiens, 1 micromolar, read-out: Percentage of inhibition of cell cultures
Method: as §1, §2, §3

Myeloma = assay: as above; assay type: cell-based; conditions: Homo sapiens, 1 micromolar, read-out: Percentage of inhibition of cell cultures
Method: as §1, §2, §3

[3] = tested on: Thyroid carcinoma (folliculary type); assay: as above; assay type: cell-based; conditions: Homo sapiens, 1 micromolar, read-out: Percentage of inhibition of cell cultures
Method: as §1, §2, §3

Prostate carcinoma = assay: Inhibition of primary tumor cell cultures vs Kras mutation (Example 2); assay type: cell-based, human; conditions: Homo sapiens, 100 micromolar, read-out: Percentage of inhibition of cell cultures
Method: as §1
In each case the presence or not of mutations in K-ras gene was determined.
To determine the existence of mutations in the K-ras gene DNA from cancer tumor cells was extracted from samples obtained from the different cancer tumor cells, using DNA extraction kits from Takara (Madison, WI, US) or Ambion (Huntingdon, Cambridgeshire, United Kingdom), following the manufacturer's instructions, and as it has been previously published (Di Fiore F, et al. 2007). Consecutively it was analyzed by sequencing the exon 2 of the KRAS gene, , by means of PCR amplification from previously extracted cancer tumor DNA, using the following sense primer (SEQ ID NO. 15): 5'-[sequence]-3' and anti-sense primer (SEQ ID NO. 16): 5'-[sequence]-3'. After the purification using the Qiagen extraction kit, the PCR products were sequenced using the Big Dye Terminator Kit V3.1 (Applied Biosystems, Foster City, CA, U.S.) and an ABI Prism 377 or 3100 DNA sequencer (Applied Biosystems). The presence of a heterozygous mutation in the KRAS gene in cancer tumor cells of the cultures was defined as the appearance of a mutant peak of a height of at least a third of the wild type. All the sequence analysis were executed at least twice in two independent PCR.
The percentages of inhibition are expressed in percentage of variation in relation to control ± standard deviation.

Breast carcinoma = assay: Inhibition of primary tumor cell cultures (48 hours) vs NK1 receptor immunostaining (Example 1); assay type: cell-based; conditions: Homo sapiens, 1 micromolar, read-out: Percentage of inhibition of cell cultures
Method: as §1, §2, §3

Neuroblastoma = assay: as above; assay type: cell-based; conditions: Homo sapiens, 1 micromolar, read-out: Percentage of inhibition of cell cultures
Method: as §1, §2, §3

Non Hodgkin Lymphoma B = assay: as above; assay type: cell-based; conditions: Homo sapiens, 1 micromolar, read-out: Percentage of inhibition of cell cultures
Method: as §1, §2, §3

Renal cell carcinoma = assay: as above; assay type: cell-based; conditions: Homo sapiens, 1 micromolar, read-out: Percentage of inhibition of cell cultures
Method: as §1, §2, §3

Pancreatic carcinoma = assay: as above; assay type: cell-based; conditions: Homo sapiens, 1 micromolar, read-out: Percentage of inhibition of cell cultures
Method: as §1, §2, §3

[4] = NK1 receptor immunostaining Group 1 (less than 20% of the cells)
[5] = NK1 receptor immunostaining Group 2 (20-80% of the cells)
[6] = NK1 receptor immunostaining Group 3 (more than 80% of the cells)
[7] = NK1 receptor immunostaining Intensity grade 1
[8] = NK1 receptor immunostaining Intensity grade 2
[9] = NK1 receptor immunostaining Intensity grade 3

## CC(=O)N1CCN([C@H]2CCN(C(=O)N(C)[C@H](C)c3cc(C(F)(F)F)cc(C(F)(F)F)c3)[C@@H](c3ccc(F)cc3C)C2)CC1 [Casopitant]
[1]; Prostate carcinoma, Cases with low expression of the truncated form of NK1 receptor (Group A)
  Percentage of inhibition of cell cultures: 23±6 percentage
[1]; Thyroid carcinoma (follicular carcinoma), Cases with high expression of the truncated form of NK1 receptor (Group B)
  Percentage of inhibition of cell cultures: 93±4 percentage
[1]; Thyroid carcinoma (follicular carcinoma), Cases with low expression of the truncated form of NK1 receptor (Group A)
  Percentage of inhibition of cell cultures: 23±3 percentage
[1]; Thyroid carcinoma (papillary carcinoma), Cases with high expression of the truncated form of NK1 receptor (Group B)
  Percentage of inhibition of cell cultures: 94±5 percentage
[1]; Thyroid carcinoma (papillary carcinoma), Cases with low expression of the truncated form of NK1 receptor (Group A)
  Percentage of inhibition of cell cultures: 24±5 percentage
[1]; Undifferentiated Pleomorphic Sarcoma (malignant fibrous histiocytoma grade 3), Cases with high expression of the truncated form of NK1 receptor (Group B)
  Percentage of inhibition of cell cultures: 94±5 percentage
[1]; Undifferentiated Pleomorphic Sarcoma (malignant fibrous histiocytoma grade 3), Cases with low expression of the truncated form of NK1 receptor (Group A)
  Percentage of inhibition of cell cultures: 25±4 percentage
[1]; Urinary bladder carcinoma (transitional cell carcinoma), Cases with high expression of the truncated form of NK1 receptor (Group B)
  Percentage of inhibition of cell cultures: 95±7 percentage
[1]; Urinary bladder carcinoma (transitional cell carcinoma), Cases with low expression of the truncated form of NK1 receptor (Group A)
  Percentage of inhibition of cell cultures: 25±4 percentage
[1]; cancer cell cultures that show more expression of the truncated form of NK1 receptor, compared, non-peptidic antagonists 100 micromolar, antibody 1/50
  inhibition of cell proliferation: higher inhibition
[2]; [4]
  inhibition at 1 µM: 14 ± 3%
[2]; [5]
  inhibition at 1 µM: 46 ± 4%
[2]; [6]
  inhibition at 1 µM: 94 ± 5%
[2]; [7]
  inhibition at 1 µM: 32 ± 5%
[2]; [8]
  inhibition at 1 µM: 53 ± 4%
[2]; [9]
  inhibition at 1 µM: 93 ± 2%
Ewing Sarcoma; [4]
  inhibition at 1 µM: 15 ± 2%
Ewing Sarcoma; [5]
  inhibition at 1 µM: 47 ± 5%
Ewing Sarcoma; [6]
  inhibition at 1 µM: 93 ± 5%
Ewing Sarcoma; [7]
  inhibition at 1 µM: 33 ± 4%
Ewing Sarcoma; [8]
  inhibition at 1 µM: 54 ± 3%
Ewing Sarcoma; [9]
  inhibition at 1 µM: 92 ± 4%
Myeloma; [4]
  inhibition at 1 µM: 16 ± 3%
Myeloma; [5]
  inhibition at 1 µM: 47 ± 4%
Myeloma; [6]
  inhibition at 1 µM: 94 ± 5%
Myeloma; [7]
  inhibition at 1 µM: 35 ± 3%
Myeloma; [8]
  inhibition at 1 µM: 55 ± 3%
Myeloma; [9]
  inhibition at 1 µM: 93 ± 3%
[3]; [4]
  inhibition at 1 µM: 14 ± 3%
[3]; [5]
  inhibition at 1 µM: 44 ± 3%
[3]; [6]
  inhibition at 1 µM: 94 ± 4%
[3]; [7]
  inhibition at 1 µM: 34 ± 3%
[3]; [8]
  inhibition at 1 µM: 54 ± 5%
[3]; [9]
  inhibition at 1 µM: 93 ± 2%
Prostate carcinoma; Cases with Kras mutated
  inhibition at 100 µM: 23 ± 3%
Prostate carcinoma; Cases with Kras non-mutated (wild type)
  inhibition at 100 µM: 93 ± 7%
Breast carcinoma; [4]
  inhibition at 1 µM: 15 ± 3%
Breast carcinoma; [5]
  inhibition at 1 µM: 47 ± 4%
Breast carcinoma; [6]
  inhibition at 1 µM: 92 ± 3%
Breast carcinoma; [7]
  inhibition at 1 µM: 35 ± 3%
Breast carcinoma; [8]
  inhibition at 1 µM: 56 ± 6%
Breast carcinoma; [9]
  inhibition at 1 µM: 92 ± 2%
Neuroblastoma; [4]
  inhibition at 1 µM: 16 ± 2%
Neuroblastoma; [5]
  inhibition at 1 µM: 45 ± 4%
Neuroblastoma; [6]
  inhibition at 1 µM: 94 ± 4%
Neuroblastoma; [7]
  inhibition at 1 µM: 35 ± 4%
Neuroblastoma; [8]
  inhibition at 1 µM: 55 ± 5%
Neuroblastoma; [9]
  inhibition at 1 µM: 94 ± 4%
Non Hodgkin Lymphoma B; [4]
  inhibition at 1 µM: 15 ± 3%
Non Hodgkin Lymphoma B; [5]
  inhibition at 1 µM: 46 ± 5%
Non Hodgkin Lymphoma B; [6]
  inhibition at 1 µM: 94 ± 4%
Non Hodgkin Lymphoma B; [7]
  inhibition at 1 µM: 32 ± 3%
Non Hodgkin Lymphoma B; [8]
  inhibition at 1 µM: 55 ± 5%
Non Hodgkin Lymphoma B; [9]
  inhibition at 1 µM: 94 ± 4%
Renal cell carcinoma; [4]
  inhibition at 1 µM: 16 ± 4%
Renal cell carcinoma; [5]
  inhibition at 1 µM: 46 ± 3%
Renal cell carcinoma; [6]
  inhibition at 1 µM: 91 ± 5%
Renal cell carcinoma; [7]
  inhibition at 1 µM: 34 ± 2%
Renal cell carcinoma; [8]
  inhibition at 1 µM: 55 ± 5%
Renal cell carcinoma; [9]
  inhibition at 1 µM: 91 ± 4%
Pancreatic carcinoma; [4]
  inhibition at 1 µM: 10 ± 4%
Pancreatic carcinoma; [5]
  inhibition at 1 µM: 45 ± 2%
Pancreatic carcinoma; [6]
  inhibition at 1 µM: 92 ± 4%
Pancreatic carcinoma; [7]
  inhibition at 1 µM: 33 ± 5%
Pancreatic carcinoma; [8]
  inhibition at 1 µM: 53 ± 3%
Pancreatic carcinoma; [9]
  inhibition at 1 µM: 93 ± 1%
